The source of these data is PubChem BioAssay AID493059 (The Scripps Research Institute Molecular Screening Center, 2011).

This experiment relates to 2B4 cells apoptosis, DAPI nuclear morphology. The experiment is described as follows: pro-apoptotic activity by DAPI nuclear scoring – imaging, DAPI fluorescence, 2B4 cells, MCL1-BIM inhibitor project, late-stage follow-up (AID 493059). Particulars: for apoptosis: at 25 µM, hits give high values.

The source made the active and inactive calls.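 The calls were made as follows: active = share of cells pushed into apoptosis exceeding a set limit, after 48 hr at 25 µM; inactive = the rest.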

On to `Cc1cccc(NC(=O)CNC(=O)c2cccc(-n3cccc3)c2)c1C`, for which the apoptosis is 1.9% (inactive).
On the same count and under the same terms, for `c1coc(-c2nc(-c3ccco3)c(-c3ccco3)nc2-c2ccco2)c1` the value was 0% (inactive); for `CCOc1ccc(NC(=O)c2cccc(-n3cccc3)c2)cc1S(=O)(=O)N1CCOCC1`, 6.1% (inactive); for `COc1ccc(-n2cccc2/C=C2\C(=N)N3N=C(c4ccco4)SC3=NC2=O)cc1`, 3.7% (inactive).
The same measure, in the same setting: for `COc1ccc(Cc2nnc(NC(=O)Cc3cccs3)s2)cc1OC` the value was 0% (inactive); for `C=CCN=c1scc(-c2ccco2)n1/N=C/c1ccc(O)c(O)c1O`, 98%.
Same read-out and setting: for `O=C(Cn1cnc2sc(-c3ccccc3)cc2c1=O)NCc1ccco1` the value was 3.6% (inactive); for `Nc1ccc(C(=O)NN=Cc2cc(N=Nc3cccc4ccccc34)ccc2O)cc1`, 15%; for `COC(=O)c1ccccc1NCc1cc(=O)oc2cc(O)c(O)cc12`, 14% (inactive).
In the case of `Cc1c(Cl)cccc1NS(=O)(=O)c1ccc2c(c1)C1C=CCC1C(c1ccc(C(=O)O)cc1)N2` (stereo not drawn), the apoptosis was 0% (inactive).
On the same count and under the same terms, for `c1ccc(CSc2nnc(-c3ccco3)c(-c3ccco3)n2)cc1` the value was 14% (inactive); for `CCc1sc(C(C2C(=O)CC(C)(C)CC2=O)C2C(=O)CC(C)(C)CC2=O)cc1[N+](=O)[O-]`, 3.5% (inactive).
The same measure, in the same setting: for `O=C(NN=Cc1ccc(-c2ccc(S(=O)(=O)Nc3ncccn3)cc2)o1)c1cc2ccccc2cc1O` the value was 18%; for `C=CCn1c(SCC(=O)c2ccc(O)c(O)c2)nnc1-c1cccnc1`, 3.5% (inactive).
Same read-out and setting: for `O=C(O)COc1ccccc1C(Nc1ccccn1)c1cc(Cl)c2cccnc2c1O` (stereo not drawn) the value was 5.1% (inactive); for `CC(C)n1c(SCC(=O)Nc2nncs2)nnc1-c1ccco1`, 0% (inactive).
With `COc1ccc(NC(=O)CN(C)C(=O)c2cc3c(s2)CCC3)cc1`, the apoptosis was 1.8% (inactive).
With `Cc1ccc(C(=O)O)cc1-c1ccc(/C=C2\SC(=O)N(CC(=O)Nc3ccc4c(c3)OCO4)C2=O)o1`, the result was inactive.
Regarding `O=C1COc2ccc(C(=O)COC(=O)/C=C/c3ccc(Br)o3)cc2N1`, the apoptosis is 3.4% (inactive).
With `O=C(/C=C/c1ccc(Cl)c([N+](=O)[O-])c1)Nc1ccc(N2CCCC2)cc1`, the result was inactive.
As for `Cc1cc(NC(=O)Cc2cccs2)no1`, the outcome was inactive.
Take `O=C(NN=Cc1cccc(F)c1)c1cc(-c2ccco2)nc2ccccc12`: the apoptosis was 3% (inactive).
Regarding `O=[N+]([O-])c1cc(CN2CCCC2)c2cccnc2c1O`, the apoptosis was 1.7% (inactive).
